Data published in the supplement of paper PMC10307832.

Tests used:
Assay in all cases: relative viability (nuclei count vs DMSO), 5 days (fraction); higher = more cells survive
[1] = system: HCC-44
Method in brief: (§1)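 Relative viability divides the nuclei count in treated wells by that in vehicle wells. Lung cancer cell lines were seeded in 1536-well plates, dosed by pin tool the next day, and fixed and stained after 5 days in one step with final 0.05% Triton X-100, 1% formaldehyde and 1 ug/ml Hoechst. Dosing was a single drug or a fixed anchor-drug dose plus five library-drug doses (not always all listed) in √10 steps, and values are medians of duplicate plates imaged at 4×.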

[2] = system: LCLC-103H
Method in brief: as §1

[3] = system: HCC-15
Method in brief: as §1

[4] = system: NCI-H358
Method in brief: as §1

[5] = system: EKVX
Method in brief: as §1

[6] = system: NCI-H2342
Method in brief: as §1

[7] = system: NCI-H2085
Method in brief: as §1

[8] = system: NCI-H1755
Method in brief: as §1

[9] = system: NCI-H838
Method in brief: as §1

[10] = system: HCC-366
Method in brief: as §1

[11] = system: CAL-12T
Method in brief: as §1

[12] = system: LOU-NH91
Method in brief: as §1

[13] = system: NCI-H1975
Method in brief: as §1

[14] = system: BEN
Method in brief: as §1

[15] = system: NCI-H2023
Method in brief: as §1

[16] = system: NCI-H1395
Method in brief: as §1

[17] = system: NCI-H1734
Method in brief: as §1

[18] = system: NCI-H441
Method in brief: as §1

[19] = system: NCI-H1650
Method in brief: as §1

[20] = system: NCI-H460
Method in brief: as §1

[21] = system: NCI-H1437
Method in brief: as §1

[22] = system: NCI-H1651
Method in brief: as §1

[23] = system: NCI-H1355
Method in brief: as §1

C[C@@H]1CN(CC(=O)Nc2ccc3c(c2)Cc2cccc(-c4cc(=O)cc(N5CCOCC5)o4)c2S3)C[C@H](C)O1 + Cc1cc(Nc2cc(N3CCN(C)CC3)nc(Sc3ccc(NC(=O)C4CC4)cc3)n2)n[nH]1 [Tozasertib] (partner 0.1 µM)
relative viability ([1]; first compound 0.04 µM): 0.862 | relative viability ([1]; first compound 0.1265 µM): 0.933 | relative viability ([1]; first compound 0.4 µM): 1.05 | relative viability ([1]; first compound 4 µM): 0.652 | relative viability ([2]; first compound 0.04 µM): 0.532 | relative viability ([2]; first compound 0.1265 µM): 0.498 | relative viability ([2]; first compound 0.4 µM): 0.544 | relative viability ([2]; first compound 4 µM): 0.417 | relative viability ([3]; first compound 0.04 µM): 0.334 | relative viability ([3]; first compound 0.1265 µM): 0.372 | relative viability ([3]; first compound 0.4 µM): 0.385 | relative viability ([3]; first compound 4 µM): 0.151 | relative viability ([4]; first compound 0.04 µM): 0.13 | relative viability ([4]; first compound 0.1265 µM): 0.0927 | relative viability ([4]; first compound 0.4 µM): 0.0941 | relative viability ([4]; first compound 4 µM): 0.114 | relative viability ([5]; first compound 0.04 µM): 0.389 | relative viability ([5]; first compound 0.1265 µM): 0.44 | relative viability ([5]; first compound 0.4 µM): 0.432 | relative viability ([5]; first compound 4 µM): 0.305 | relative viability ([6]; first compound 0.04 µM): 0.477 | relative viability ([6]; first compound 0.1265 µM): 0.494 | relative viability ([6]; first compound 0.4 µM): 0.559 | relative viability ([6]; first compound 4 µM): 0.384 | relative viability ([7]; first compound 0.04 µM): 0.85 | relative viability ([7]; first compound 0.1265 µM): 0.827 | relative viability ([7]; first compound 0.4 µM): 0.739 | relative viability ([7]; first compound 4 µM): 0.551 | relative viability ([8]; first compound 0.04 µM): 0.603 | relative viability ([8]; first compound 0.1265 µM): 0.582 | relative viability ([8]; first compound 0.4 µM): 0.595 | relative viability ([8]; first compound 4 µM): 0.466 | relative viability ([9]; first compound 0.04 µM): 0.255 | relative viability ([9]; first compound 0.1265 µM): 0.279 | relative viability ([9]; first compound 0.4 µM): 0.28 | relative viability ([9]; first compound 4 µM): 0.202 | relative viability ([10]; first compound 0.04 µM): 0.165 | relative viability ([10]; first compound 0.1265 µM): 0.132 | relative viability ([10]; first compound 0.4 µM): 0.0609 | relative viability ([10]; first compound 4 µM): 0.0509 | relative viability ([11]; first compound 0.04 µM): 0.306 | relative viability ([11]; first compound 0.1265 µM): 0.366 | relative viability ([11]; first compound 0.4 µM): 0.296 | relative viability ([11]; first compound 4 µM): 0.217 | relative viability ([12]; first compound 0.04 µM): 0.605 | relative viability ([12]; first compound 0.1265 µM): 0.649 | relative viability ([12]; first compound 0.4 µM): 0.69 | relative viability ([12]; first compound 4 µM): 0.62 | relative viability ([13]; first compound 0.04 µM): 0.781 | relative viability ([13]; first compound 0.1265 µM): 0.675 | relative viability ([13]; first compound 0.4 µM): 0.611 | relative viability ([13]; first compound 4 µM): 0.193 | relative viability ([14]; first compound 0.04 µM): 0.449 | relative viability ([14]; first compound 0.1265 µM): 0.49 | relative viability ([14]; first compound 0.4 µM): 0.447 | relative viability ([14]; first compound 4 µM): 0.478 | relative viability ([15]; first compound 0.04 µM): 0.406 | relative viability ([15]; first compound 0.1265 µM): 0.285 | relative viability ([15]; first compound 0.4 µM): 0.238 | relative viability ([15]; first compound 4 µM): 0.175 | relative viability ([16]; first compound 0.04 µM): 0.696 | relative viability ([16]; first compound 0.1265 µM): 0.729 | relative viability ([16]; first compound 0.4 µM): 0.665 | relative viability ([16]; first compound 4 µM): 0.721 | relative viability ([17]; first compound 0.04 µM): 0.286 | relative viability ([17]; first compound 0.1265 µM): 0.238 | relative viability ([17]; first compound 0.4 µM): 0.261 | relative viability ([17]; first compound 4 µM): 0.205 | relative viability ([18]; first compound 0.04 µM): 0.601 | relative viability ([18]; first compound 0.1265 µM): 0.678 | relative viability ([18]; first compound 0.4 µM): 0.528 | relative viability ([18]; first compound 4 µM): 0.49 | relative viability ([19]; first compound 0.04 µM): 0.433 | relative viability ([19]; first compound 0.1265 µM): 0.375 | relative viability ([19]; first compound 0.4 µM): 0.344 | relative viability ([19]; first compound 4 µM): 0.239 | relative viability ([20]; first compound 0.04 µM): 0.393 | relative viability ([20]; first compound 0.1265 µM): 0.397 | relative viability ([20]; first compound 0.4 µM): 0.485 | relative viability ([20]; first compound 4 µM): 0.0949 | relative viability ([21]; first compound 0.04 µM): 0.379 | relative viability ([21]; first compound 0.1265 µM): 0.354 | relative viability ([21]; first compound 0.4 µM): 0.395 | relative viability ([21]; first compound 4 µM): 0.365 | relative viability ([22]; first compound 0.04 µM): 0.683 | relative viability ([22]; first compound 0.1265 µM): 0.609 | relative viability ([22]; first compound 0.4 µM): 0.602 | relative viability ([22]; first compound 4 µM): 0.535 | relative viability ([23]; first compound 0.04 µM): 0.361 | relative viability ([23]; first compound 0.1265 µM): 0.514 | relative viability ([23]; first compound 0.4 µM): 0.461 | relative viability ([23]; first compound 4 µM): 0.42
